The subject of one series is HCT116 cells. Kind of series: MTT cytotoxicity screening, human colon cancer cell line HCT116. It counts as cell-based. The settings on record: Homo sapiens. The source says:
Human colon cancer cell line HCT116 can be used for the preliminary cytotoxicity screening of the disclosed compounds as disclosed by Mosmann, T., “Rapid colorimetric assay for cellular growth and survival: application to proliferation and cytotoxicity assays.” J. Immunol. Methods, (1983) 65(1-2): p. 55-63 referred to herein further as the “MTT test” which is incorporated herein by reference in its entirety.
The disclosure of Mosmann recites the following. “MTT 93-(4,5-dimethylthirazol-2-yl)-2,5-diphenyl tetrazolium bromide; Sigman catalog no. M2128) was dissolved in PBS at 5 mg/ml and filtered to sterilize and remove a small amount of insoluble residue present in some batches of MTT. At the times indicated below, stock MTT solution (10 ml per 100 ml) was added to all wells of an assay, and plates were incubated at 37° C. for 4 h. Acid-siopropanol (100 ml of 0.04 N HCl in isopropanol) was added to all wells and mixed thoroughly to dissolve the dark blue crystals. After a few minutes at room temperature to ensure that all crystals were dissolved, the plates were read o a Dynatech MR580Microelisa reader, using a test wavelength of 570 nm, a reference wavelength of 630 nm, and a calibration setting of 1.99 (or 1.0 if the samples were strongly colored). Plates were normally read within 1 h of adding the isopropanol.
“Our final procedure was to add 0.01 ml MTT (5 mg/ml in phosphate-buffered saline) to 0.1 ml cells in growth medium. After 4 h at 37° C. for MTT cleavage, the formazan product was solublilized by the addition of 0.1 ml 0.04 N HCl in isopropanol. Optical density was measured on a Dynatech MR 580 plate reader, using a reference wavelength of 630 nm and a test wavelength of 570 nm.” 3-(4,5-Dimethylthiazol-2-yl)-2,5-diphenyltetrazolium bromide, a tetrazole, can pass through cellular membrane to enter into cells. This tetrazole may be reduced to the purple formazan in the mitochondria of living cells, which can diffuse out to form crystals. This crystal can be dissolved in the dimethyl sulfoxide to form a colored solution. The absorbance of this colored solution can be quantified by measuring at certain wavelength (490 nm) using a spectrophotometer. The quantity of the formazan crystal is proportional to the number of living cells.
As used herein, cells were cultured in McCoy's 5A medium supplemented with 10% heat-inactivated Fetal Bovine Serum (FBS) and 5% Penicillin/Streptomycin solution. McCoy's 5A, 1× (Iwakata & Grace modified) medium with L-Glutamine, DPBS, 1× w/o Ca and Mg, Penicillin/Streptomycin solution, Trypsin EDTA, 1× and PBS, 1× w/o Ca and Mg were purchased from Mediatech, Inc. (USA). FBS was purchased from Hyclone (USA).
The cytotoxicity of the compounds was estimated using the MTT assay. A 96-well plate was seeded with 100 μl medium containing HCT116 cells in suspension at a density of 2.5×10^4 cells/ml. After 24 hours of incubation, the cells were treated with the compounds, which were dissolved in DMSO (dimethyl sulfoxide) as stock solutions and diluted to final concentrations of 100 μM, 50 μM, 25 μM, 12.5 μM, 6.25 μM & 1 μM (for compounds tested in the micromolar concentrations) and 10 μM, 1 μM, 500 nM, 250 nM, 125 nM & 62.5 nM (for compounds tested in the nanomolar concentration range) using medium containing 0.1% DMSO. The final concentration of DMSO in the culture medium was maintained at 0.1%-0.001% (v/v). After 48 hrs incubation in the presence of test compounds, the spent medium was removed and the wells were washed twice with 100 μL of PBS solution. 100 μL of fresh medium and 10 μL of MTT (5 mg/ml in PBS) was added to the wells and incubated at 37° C. in dark for 4 hrs. The formazan product was dissolved by adding 100 μL of 100% DMSO after removing the medium from each well and was stabilized by adding 12.5 μL of Sorensen's glycine buffer to each well. […]

Where [1] appears, read: HCT-116, 48 hrs incubation, absorbance 490 nm, primary screening, read-out: IC50.

Read-outs that look alike come from different tables or passages of the source.

`COc1cc(OC)c(C2=CCN(C)CC2)c(O)c1C(=O)/C=C/c1ccc(N(C)C)cc1` [Compound A14, (E)-3-(4-dimethylaminophenyl)-1-(2-hydroxy-4,6-dimethoxy-3-(1-methyl-1,2,3,6-tetrahydropyridine-4-yl)phenyl)-2-propylene-1-one] yielded a melting point of 176 to 177 °C. In addition, the half-maximal inhibitory concentration (IC50) in the series on HCT116 cells (setting [1]) came out at 30.5 µM.
`COc1cc(OC)c(C2=CCN(C)CC2)c(O)c1C(=O)/C=C/c1ccc(C#N)cc1` [Compound A15, (E)-3-(4-cyanophenyl)-1-(2-hydroxy-4,6-dimethoxy-3-(1-methyl-1,2,3,6-tetrahydropyridine-4-yl)phenyl)-2-propylene-1-one] yielded a melting point of 125 to 126 °C. Moreover, in the series with HCT116 cells (setting [1]), the IC50 is 13.3 µM.
On the same counts, the results for `COc1ccc(/C=C/C(=O)c2c(OC)cc(OC)c(C3=CCN(C)CC3)c2O)c(OC)c1OC` [Compound A16, (E)-1-(2-hydroxy-4,6-dimethoxy-3-(1-methyl-1,2,3,6-tetrahydropyridine-4-yl)phenyl)-3-(2,3-4-trimethoxyphenyl)-2-propylene-1-one] are 145 to 147 °C and 3.31 µM.
On the same counts, the results for `COc1cc(/C=C/C(=O)c2c(OC)cc(OC)c(C3=CCN(C)CC3)c2O)cc(OC)c1OC` [Compound A17, (E)-1-(2-hydroxy-4,6-dimethoxy-3-(1-methyl-1,2,3,6-tetrahydropyridine-4-yl)phenyl)-3-(3,4,5-trimethoxyphenyl)-2-propylene-1-one] are 156 to 158 °C and 18.4 µM.
For the molecule `COc1cc(OC)c(C2=CCNCC2)c(O)c1C(=O)/C=C/c1ccccc1` [Compound B1, 1-(2-hydroxy-4,6-dimethoxy-3-(1,2,3,6-tetrahydropyridine-4-yl)phenyl)-3-phenyl-2-propylene-1-one], the melting point fell in the range of 118 to 120 °C. Further, the IC50 in the series on HCT116 cells (setting [1]) turned out to be 8.41 µM. Besides, the IC50 in the series with HCT116 cells (HCT-116, further evaluated after secondary screening (Table VIII), read-out: IC50 value) was about 0.1 µM.
In turn, `COc1cc(OC)c(C2=CCNCC2)c(O)c1C(=O)/C=C/c1ccccc1[N+](=O)[O-]` [Compound B3, (E)-1-(2-hydroxy-4,6-dimethoxy-3-(1,2,3,6-tetrahydropyridine-4-yl)phenyl)-3-(2-nitrophenyl)-2-propylene-1-one] returned a melting point of 128 to 130 °C. Moreover, the IC50 in the series with HCT116 cells (setting [1]) is 5.68 µM.
The corresponding values for `COc1cccc(/C=C/C(=O)c2c(OC)cc(OC)c(C3=CCNCC3)c2O)c1OC` [Compound B4, (E)-3-(2,3-dimethoxyphenyl)-1-(2-hydroxy-4,6-dimethoxy-3-(1,2,3,6-tetrahydropyridine-4-yl)phenyl)-2-propylene-1-one] are 109 to 110 °C and 4.47 µM.
On the same counts, the results for `COc1cc(OC)c(C2=CCNCC2)c(O)c1C(=O)/C=C/c1cccc(C)c1` [Compound B5, (E)-1-(2-hydroxy-4,6-dimethoxy-3-(1,2,3,6-tetrahydropyridine-4-yl)phenyl)-3-(3-methylphenyl)-2-propylene-1-one] are 95 to 96 °C and 6.13 µM.
The corresponding values for `COc1cccc(/C=C/C(=O)c2c(OC)cc(OC)c(C3=CCNCC3)c2O)c1` [Compound B6, (E)-1-(2-hydroxy-4,6-dimethoxy-3-(1,2,3,6-tetrahydropyridine-4-yl)phenyl)-3-(3-methoxyphenyl)-2-propylene-1-one] are 99 to 100 °C and 3.08 µM.
Molecule `COc1cc(OC)c(C2=CCNCC2)c(O)c1C(=O)/C=C/c1cccc(Cl)c1` [Compound B7, (E)-3-(3-chlorophenyl)-1-(2-hydroxy-4,6-dimethoxy-3-(1,2,3,6-tetrahydropyridine-4-yl)phenyl)-2-propylene-1-one] showed a melting point of 102 to 103 °C. Besides, the IC50 in the series with HCT116 cells (setting [1]) was 9.97 µM.
The corresponding values for `COc1cc(OC)c(C2=CCNCC2)c(O)c1C(=O)/C=C/c1cccc([N+](=O)[O-])c1` [Compound B8, (E)-1-(2-hydroxy-4,6-dimethoxy-3-(1,2,3,6-tetrahydropyridine-4-yl)phenyl)-3-(3-nitrophenyl)-2-propylene-1-one] are 199 to 200 °C and 4.1 µM.
`COc1cc(OC)c(C2=CCNCC2)c(O)c1C(=O)/C=C/c1ccc(C)cc1` [Compound B9, (E)-1-(2-hydroxy-4,6-dimethoxy-3-(1,2,3,6-tetrahydropyridine-4-yl)phenyl)-3-(4-methylphenyl)-2-propylene-1-one] registered a melting point of 98 to 100 °C. Besides, the IC50 in the series on HCT116 cells (setting [1]) turned out to be 4.02 µM.
On the same counts, the results for `COc1ccc(/C=C/C(=O)c2c(OC)cc(OC)c(C3=CCNCC3)c2O)cc1` [Compound B10, (E)-1-(2-hydroxy-4,6-dimethoxy-3-(1,2,3,6-tetrahydropyridine-4-yl)phenyl)-3-(4-methoxyphenyl)-2-propylene-1-one] are 90 to 91 °C and 11.4 µM.
`COc1cc(OC)c(C2=CCNCC2)c(O)c1C(=O)/C=C/c1ccc(O)cc1` [Compound B11, (E)-1-(2-hydroxy-4,6-dimethoxy-3-(1,2,3,6-tetrahydropyridine-4-yl)phenyl)-3-(4-hydroxyphenyl)-2-propylene-1-one] returned a melting point of 109 to 110 °C. Further, in the series on HCT116 cells (setting [1]), the IC50 is 4.03 µM.
On the same counts, the results for `COc1cc(OC)c(C2=CCNCC2)c(O)c1C(=O)/C=C/c1ccc(Cl)cc1` [Compound B12, (E)-3-(4-chlorophenyl)-1-(2-hydroxy-4,6-dimethoxy-3-(1,2,3,6-tetrahydropyridine-4-yl)phenyl)-2-propylene-1-one] are 93 to 94 °C and 4.82 µM.
Turning to `COc1cc(OC)c(C2=CCNCC2)c(O)c1C(=O)/C=C/c1ccc(Br)cc1` [Compound B13, (E)-3-(4-bromophenyl)-1-(2-hydroxy-4,6-dimethoxy-3-(1,2,3,6-tetrahydropyridine-4-yl)phenyl)-2-propylene-1-one], the melting point is 120 to 121 °C. Besides, the IC50 in the series on HCT116 cells (setting [1]) was found to be 18.2 µM.
`COc1cc(OC)c(C2=CCNCC2)c(O)c1C(=O)/C=C/c1ccc(N(C)C)cc1` [Compound B14, (E)-3-(4-dimethylaminophenyl)-1-(2-hydroxy-4,6-dimethoxy-3-(1,2,3,6-tetrahydropyridine-4-yl)phenyl)-2-propylene-1-one]: the melting point lay within 127 to 128 °C. The IC50 in the series with HCT116 cells (setting [1]) was determined as 32 µM.
The molecule `COc1cc(OC)c(C2=CCNCC2)c(O)c1C(=O)/C=C/c1ccc(C#N)cc1` [Compound B15, (E)-3-(4-cyanophenyl)-1-(2-hydroxy-4,6-dimethoxy-3-(1,2,3,6-tetrahydropyridine-4-yl)phenyl)-2-propylene-1-one] gave a melting point of 135 to 136 °C. Also, in the series with HCT116 cells (setting [1]), the IC50 came to 7.3 µM.
For the molecule `COc1ccc(/C=C/C(=O)c2c(OC)cc(OC)c(C3=CCNCC3)c2O)c(OC)c1OC` [Compound B16, (E)-1-(2-hydroxy-4,6-dimethoxy-3-(1,2,3,6-tetrahydropyridine-4-yl)phenyl)-3-(2,3,4-trimethoxyphenyl)-2-propylene-1-one], the melting point lay within 98 to 100 °C. Also, the IC50 in the series on HCT116 cells (setting [1]) came to 5.54 µM.
On the same counts, the results for `COc1cc(/C=C/C(=O)c2c(OC)cc(OC)c(C3=CCNCC3)c2O)cc(OC)c1OC` [Compound B17, (E)-1-(2-hydroxy-4,6-dimethoxy-3-(1,2,3,6-tetrahydropyridine-4-yl)phenyl)-3-(3,4,5-trimethoxyphenyl)-2-propylene-1-one] are 124 to 125 °C and 4.2 µM.

As usually defined, the IC50 is the concentration that gives 50% inhibition. As a reminder, the melting point is the temperature of the solid-liquid transition.
